Consider two molecules from patent US10314813B2, “Antimicrobial compositions for Clostridium difficile” (University of Central Florida Research Foundation, Inc., priority 2017, dated 2019).

Usually MIC stands for the smallest concentration in the dilution series that meets the test's criterion for growth inhibition.

The test system of assay [1] is Clostridium difficile NAP1027. Put plainly: MIC broth dilution per CLSI M11-A8, modified Brucella broth. The format is cell-based. The note with it: strain NAP1027; Brucella broth mix + yeast, no blood/hemin; n = 12. On the procedure: (§1) MIC experiments for Puupehenone were carried out in accordance with CLSI M11-A8 for broth dilutions. The levels of antimicrobial were achieved via serial dilution and listed as follows; 32 ug/mL, 16 ug/mL. 8 ug/mL, 4 ug/mL, 2 ug/mL, 1 ug/mL, 0.5 ug/mL, 0.25 ug/mL, 0.125 ug/mL, 0.0625 ug/mL/. Metranidazole was used a positive control. The only deviation from the CLSI was a modification to the media. […] This was noted due to comparisons with previous BHIS experiments. Thus, the media was modified to resemble the BHIS media, with only Brucella broth mix (28 g/L) and yeast (5 g/L). The reason for the decreased efficacy of the drug when in blood based media is still being investigated. The MICs against different C. difficile strains (ATCC9689, NAP1027, and 630 were determined for both Puupehone and Matranidazole See Table 1.

The test system of assay [2] is Clostridium difficile 630. The description is as above. Conditions: strain 630; Brucella broth mix + yeast, no blood/hemin; n = 12. The format is cell-based. The procedure: as §1
Assay [3] deals with Clostridium difficile ATCC 9689. The description is as above. The format is cell-based. Conditions: strain ATCC 9689; Brucella broth mix + yeast, no blood/hemin; n = 12. On the procedure: as §1
In assay [4] the test system is C. difficile strain VPI 10463 or strain ATCC 9689. Kind of assay: 96-well growth inhibition test in BHIS media, optical density readout. The format is cell-based, Clostridium difficile. Conditions: puupehenone in MeOH, 40 μL-well, Trial 1 (0 μL-well 0.0816). The procedure:
Tests were performed in a Coy anaerobic chamber (Coy Labs Grass Lake, Mich.). The compound Puupehenone was dissolved in either methanol or DMSO for testing. Using a 96-well plate, 200 μL of BHIS media was added to 12 wells. One was the control (BHIS media alone). The sequential nine wells have increments of 5 μL of puupehenone. The remaining two wells have no puupehenone but one has 20 μL and another has 40 μL of methanol. These last wells are a separate test to determine if methanol influences the growth of C. difficile. Then 10 μL of C. difficile strain VPI 10463 or strain ATCC 9689 was added to each well except for the control. Trials with DMSO were performed in increments of 2 μL of puupehenone. Effects of puupehenone on C. difficile were tested based on optical density (e.g. OD500 nm, OD600 nm or OD630 nm, inter alia) using an optical reader as is standard in the art. Results

Regarding `CC1(C)CCC[C@]2(C)[C@H]3C=C4C=C(O)C(=O)C=C4O[C@@]3(C)CC[C@@H]12` [Puupehenone, puupehenone], the MIC in assay [1] is 8 µg/mL; in assay [2], 8 µg/mL; in assay [3] it was 4 µg/mL. For the same molecule, the “optical density (growth of C. difficile)” value in assay [4] was found to be 0.0742.
On to `Cc1ncc([N+](=O)[O-])n1CCO` [Metranidazole, reference compound], for which the results for the MIC in assay [1], in assay [2] and in assay [3] were 0.25 µg/mL, 0.5 µg/mL and 0.25 µg/mL, respectively.
